Results from patent EP4745118A1, “HYDROXAMIC ACID COMPOUND OR PHARMACEUTICALLY ACCEPTABLE SALT THEREOF, AND USE THEREOF AND PREPARATION METHOD THEREFOR” (priority 2023, dated 2025).
≈ marks a conversion by molar mass, not a printed value. Where two headings read alike, the source gives them in different places.

Key:
Experiment in all cases: In vitro antibacterial activity, agar dilution method (MIC)
Format in all cases: cell-based
[1] = system: Citrobacter freundii; details: ATCC43864; Citrobacter freundii ATCC 43864; agar dilution, 35°C, 18 hours; read-out: MIC
Experimental: (§1) According to the relevant operating procedures of the Clinical Laboratory Standards Institute (CLSI) in the United States, an antimicrobial susceptibility testing was conducted using the agar dilution method. […]. The agar was allowed to solidify and set aside for later use.
(§2) The test bacteria were propagated in broth and adjusted to a turbidity of 0.5 McFarland (approximately 1-2 × 10^8 CFU/mL) using a turbidimeter before inoculation. The 0.5 McFarland bacterial solution was then diluted 10-fold in broth (approximately 1-2 × 10^7 CFU/mL). A multipoint inoculator was used to inoculate the above bacterial solution onto a series of plates containing different concentrations of drugs (with an inoculation amount of approximately 10^4 CFU per inoculation site). After incubation at a constant temperature of 35°C for 18 hours, results were observed. The minimum concentration of drugs contained in sterile growth plates was determined as the Minimal Inhibitory Concentration (MIC).

[2] = system: Enterobacter aerogenes; details: Klebsiella aerogenes, ATCC13048; Enterobacter aerogenes ATCC 13048; agar dilution, 35°C, 18 hours; read-out: MIC
Experimental: as §1, §2

[3] = system: Escherichia coli; details: Escherichia coli, agar dilution, 35°C
Experimental: as §1, §2

[4] = system: Klebsiella pneumoniae; details: Klebsiella pneumoniae, agar dilution, 35°C, 18 hours
Experimental: as §1, §2

[5] = system: Pantoea agglomerans; details: ATCC27993; Pantoea agglomerans ATCC 27993; agar dilution, 35°C, 18 hours; read-out: MIC
Experimental: as §1, §2

[6] = system: Proteus mirabilis; details: ATCC49565; Proteus mirabilis ATCC 49565; agar dilution, 35°C, 18 hours; read-out: MIC
Experimental: as §1, §2

[7] = system: Proteus vulgaris; details: ATCC29905; Proteus vulgaris ATCC 29905; agar dilution, 35°C, 18 hours; read-out: MIC
Experimental: as §1, §2

[8] = system: Pseudomonas aeruginosa; details: Pseudomonas aeruginosa PAO1; agar dilution, 35°C, 18 hours; read-out: MIC
Experimental: as §1, §2

[9] = system: Serratia marcescens; details: ATCC21074; Serratia marcescens ATCC 21074; agar dilution, 35°C, 18 hours; read-out: MIC
Experimental: as §1, §2

[10] = system: Enterobacter cloacae; details: Enterobacter cloacae CDC1000654 (NDM-1-producing); agar dilution, 35°C, 18 hours; read-out: MIC
Experimental: According to the relevant operating procedures of the Clinical Laboratory Standards Institute (CLSI) in the United States, an antimicrobial susceptibility testing was conducted using the agar dilution method. […] The agar was allowed to solidify and set aside for later use.
as §2

[11] = system: Shigella flexneri; details: ATCC12022, Shigella flexneri ATCC 12022, 35°C, 18 hours, read-out: MIC
Experimental: According to the relevant operating procedures of the Clinical Laboratory Standards Institute (CLSI) in the United States, an antimicrobial susceptibility testing was conducted using the agar dilution method. A 1920 µg/mL stock solution was serially diluted twofold with sterile water to obtain dilutions of 960, 480, 240, 120, 60, 30, 15, 7.5, 3.75, 1.88, 0.94, 0.47 µg/mL, and 1 mL of the dilution was taken respectively from the dilutions with different concentrations and added to a Petri dish, to which 14 mL of melted MH agar medium was added and mixed thoroughly, and the final concentration of the drug in the petri dish is 128, 64, 32, 16, 8, 4, 2, 1, 0.5, 0.25, 0.12, 0.06, and 0.03 µ g/mL, respectively. The agar was allowed to solidify and set aside for later use.
as §2

[12] = 18 h, Escherichia coli 13-43 (mcr-1), 18 hours, read-out: MIC
[13] = 18 h, Escherichia coli 17-R28 (CRE, NDM-1-producing), 18 hours, read-out: MIC
[14] = ATCC2469, 18 h, Escherichia coli ATCC 2469 (CRE, NDM-1-producing), 18 hours, read-out: MIC
[15] = ATCC35218, 18 h, Escherichia coli ATCC 35218 (ESBLs-producing), 18 hours, read-out: MIC
[16] = 18 h, Klebsiella pneumoniae 09-20 (mcr-1), read-out: MIC
[17] = 18 h, Klebsiella pneumoniae 17-R27 (CRE), read-out: MIC
[18] = 18 h, Klebsiella pneumoniae 18-8 (ESBLs-producing), read-out: MIC
[19] = ATCC700603, 18 h, Klebsiella pneumoniae ATCC 700603 (ESBLs-producing), read-out: MIC
[20] = ATCCBAA2146, 18 h, Klebsiella pneumoniae ATCC BAA-2146 (CRE, NDM-1-producing), read-out: MIC
[21] = ATCCBAA2146, 18 h, Klebsiella pneumoniae ATCC BAA-2146 (CRE, NDM-1-producing)

SMILES | MIC [1] | MIC [2] | MIC [3, 12] | MIC [3, 13] | MIC [3, 14] | MIC [3, 15] | MIC [4, 16] | MIC [4, 17] | MIC [4, 18] | MIC [4, 19] | MIC [4, 20] | MIC [5] | MIC [6] | MIC [7] | MIC [8] | MIC [9] | MIC [10] | MIC [11] | MIC [4, 21] | MIC ([3]; 18 h, Escherichia coli 17-R28 (CRE, NDM-1-producing))
NCC[C@H](O)C(=O)N[C@@H]1C[C@H](N)[C@@H](O[C@H]2O[C@H](CN)[C@@H](O)[C@H](O)[C@H]2O)[C@H](O)[C@H]1O[C@H]1O[C@H](CO)[C@@H](O)[C@H](N)[C@H]1O [Amikacin] | 2 µg/mL (≈ 3.42 µM) | 1 µg/mL (≈ 1.71 µM) | 4 µg/mL (≈ 6.83 µM) | > 128 µg/mL | > 128 µg/mL | 4 µg/mL (≈ 6.83 µM) | > 128 µg/mL | 2 µg/mL (≈ 3.42 µM) | 1 µg/mL (≈ 1.71 µM) | 1 µg/mL (≈ 1.71 µM) | > 128 µg/mL | 2 µg/mL (≈ 3.42 µM) | 2 µg/mL (≈ 3.42 µM) | 1 µg/mL (≈ 1.71 µM) | 2 µg/mL (≈ 3.42 µM) | 2 µg/mL (≈ 3.42 µM) | > 128 µg/mL | 4 µg/mL (≈ 6.83 µM) | – | –
C[C@H]1[C@H](NC(=O)/C(=N\OC(C)(C)C(=O)O)c2csc(N)n2)C(=O)N1S(=O)(=O)O [Aztreonam] | 0.12 µg/mL (≈ 0.276 µM) | 0.12 µg/mL (≈ 0.276 µM) | 16 µg/mL (≈ 36.7 µM) | 8 µg/mL (≈ 18.4 µM) | 4 µg/mL (≈ 9.19 µM) | ≤ 0.03 µg/mL | 0.25 µg/mL (≈ 0.574 µM) | 0.25 µg/mL (≈ 0.574 µM) | 1 µg/mL (≈ 2.3 µM) | 16 µg/mL (≈ 36.7 µM) | – | ≤ 0.03 µg/mL | ≤ 0.03 µg/mL | ≤ 0.03 µg/mL | 4 µg/mL (≈ 9.19 µM) | 0.12 µg/mL (≈ 0.276 µM) | – | 0.06 µg/mL (≈ 0.138 µM) | > 128 µg/mL | –
CO/N=C(\C(=O)N[C@@H]1C(=O)N2C(C(=O)[O-])=C(C[N+]3(C)CCCC3)CS[C@H]12)c1csc(N)n1 [Cefepime] | ≤ 0.03 µg/mL | 0.06 µg/mL (≈ 0.125 µM) | 2 µg/mL (≈ 4.16 µM) | – | 64 µg/mL (≈ 133 µM) | ≤ 0.03 µg/mL | 1 µg/mL (≈ 2.08 µM) | 0.5 µg/mL (≈ 1.04 µM) | 1 µg/mL (≈ 2.08 µM) | 1 µg/mL (≈ 2.08 µM) | – | 0.06 µg/mL (≈ 0.125 µM) | 0.06 µg/mL (≈ 0.125 µM) | ≤ 0.03 µg/mL | 2 µg/mL (≈ 4.16 µM) | 0.06 µg/mL (≈ 0.125 µM) | – | ≤ 0.03 µg/mL | 128 µg/mL (≈ 266 µM) | > 128 µg/mL
COCC1CC1C#CC#Cc1ccc(C(=O)N[C@H](C(=O)NO)C(C)(C)N)cc1 (stereo partly drawn) [Formula I] | 0.5 µg/mL | 2 µg/mL | 0.5 µg/mL | 0.5 µg/mL | 0.5 µg/mL | 0.5 µg/mL | 2 µg/mL | 2 µg/mL | – | 4 µg/mL | 8 µg/mL | 4 µg/mL | 2 µg/mL | 0.5 µg/mL | 2 µg/mL | 0.5 µg/mL | 4 µg/mL | 0.25 µg/mL | – | –
